Measurements reported in PubChem BioAssay (NCI).
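96-well plates; 48 h exposure; 5 concentrations. Endpoints by linear interpolation between flanking doses. Not reached: highest tested concentration assigned. Definition used: TGI = concentration required for complete inhibition of growth.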

How the values were obtained:
Assay in all cases: NCI tumour cell line growth inhibition, 48 h
[1] = test system: RPMI-8226 leukemia
[2] = test system: SN12C renal
[3] = test system: RXF 393 renal
[4] = test system: UO-31 renal
[5] = test system: K-562 leukemia
[6] = test system: HL-60(TB) leukemia
[7] = test system: DLD-1 colon
[8] = test system: SW-620 colon
[9] = test system: IGROV1 ovarian
[10] = test system: KM20L2 colon
[11] = test system: HOP-92 NSCLC
[12] = test system: MCF7 breast
[13] = test system: HCT-15 colon
[14] = test system: CAKI-1 renal
[15] = test system: SF-539 CNS
[16] = test system: SK-MEL-2 melanoma
[17] = test system: TK-10 renal
[18] = test system: MDA-MB-231 breast
[19] = test system: T-47D breast
[20] = test system: BT-549 breast

SMILES | TGI [1] [µM] | TGI [2] [µM] | TGI [3] [µM] | TGI [4] [µM] | TGI [5] [µM] | TGI [6] [µM] | TGI [7] [µM] | TGI [8] [µM] | TGI [9] [µM] | TGI [10] [µM] | TGI [11] [µM] | TGI [12] [µM] | TGI [13] [µM] | TGI [14] [µM] | TGI [15] [µM] | TGI [16] [µM] | TGI [17] [µM] | TGI [18] [µM] | TGI [19] [µM] | TGI [20] [µM]
O=C(CCN1CCOCC1)C(=Cc1ccccc1)C(=O)CCN1CCOCC1 | 4.14 | 7.45 | 3.14 | 27.6 | 2.15 | 3.52 | 3.84 | 4.29 | 20.3 | 25 | 4.06 | 13.4 | 4.74 | 13.5 | 10 | 22.6 | – | – | – | –
Cc1ccc(S(=O)(=O)NCCCSCCSCCCN)cc1 | – | > 100 | > 100 | > 100 | > 100 | > 100 | – | > 100 | – | – | > 100 | > 100 | > 100 | – | – | – | > 100 | > 100 | > 100 | –
COC(=O)C1=C(C)N2CCOC2CC1c1ccccc1 (centres undefined) | > 100 | – | > 100 | > 100 | > 100 | > 100 | > 100 | > 100 | > 100 | > 100 | > 100 | – | – | > 100 | > 100 | > 100 | > 100 | – | – | –
CN(C)CCN(C(=Nc1ccccc1)N1CCCC1)c1ccccc1 | 82.3 | > 100 | – | > 100 | > 100 | > 100 | – | > 100 | > 100 | – | > 100 | > 100 | > 100 | > 100 | – | > 100 | > 100 | – | > 100 | > 100
CC(=O)NNc1nc(C)c(C(=O)NNC(=O)C(=O)Nc2c(C)cccc2C(C)(C)C)s1 | > 100 | > 100 | > 100 | > 100 | > 100 | > 100 | > 100 | > 100 | > 100 | > 100 | > 100 | – | > 100 | > 100 | > 100 | > 100 | > 100 | – | – | –
O=C(N/N=C\C(F)(F)F)c1ccncc1 | > 100 | > 100 | > 100 | > 100 | > 100 | > 100 | – | > 100 | > 100 | – | > 100 | > 100 | > 100 | > 100 | – | > 100 | > 100 | – | – | > 100
CCN(CC)CCN(C(=O)c1ccc(F)cc1)c1ccccc1N | > 10 | > 10 | > 10 | > 10 | > 10 | > 10 | – | > 10 | > 10 | – | – | > 10 | > 10 | > 10 | > 10 | > 10 | > 10 | > 10 | > 10 | –
COc1cc2oc(=O)ccc2cc1CC=C(C)C | 61 | > 100 | 64.7 | 97.9 | > 100 | 33.1 | – | > 100 | > 100 | – | 69 | > 100 | – | > 100 | > 100 | > 100 | 97.5 | > 100 | > 100 | 81
COc1cc(C(=O)Nc2cc(C(N)=O)cc(OC)c2OC)cc(NC(=O)/C=C/c2ccccc2)c1OC | > 100 | 85.6 | > 100 | > 100 | > 100 | > 100 | – | > 100 | > 100 | – | > 100 | > 100 | > 100 | – | > 100 | – | > 100 | 57.5 | – | > 100
Cc1ccc(S(=O)(=O)NNC2Oc3cc4c(cc3C(c3ccccc3O)C2C)OCO4)cc1 (centres undefined) | 47.1 | 30.5 | 19.3 | 23 | 50.2 | 40.8 | – | 29.7 | 27.2 | – | 31.7 | 35.2 | 32 | 28.9 | 33.3 | 22.8 | 31.3 | 31.4 | 25.6 | 27.3
